Legend:
[1] = target: T1, full length (FL) LXRβ (Homo sapiens, UniProt P55055, DUP175-175); experiment: LXR Gal4 reporter transient transfection assay (FL-M2H Gal4β); type: cell-based; conditions: HEK293 cells, full length LXRβ; read-out: FL-M2H Gal4β (EC50 range)
T1 construct: the full length (FL) proteins of LXRα (amino acids 1-447); NP005684; NP009052; expressed in transfected cells; host or cells: HEK293
T1 sequence (P55055 with tags, fused parts or gaps DUP175-175): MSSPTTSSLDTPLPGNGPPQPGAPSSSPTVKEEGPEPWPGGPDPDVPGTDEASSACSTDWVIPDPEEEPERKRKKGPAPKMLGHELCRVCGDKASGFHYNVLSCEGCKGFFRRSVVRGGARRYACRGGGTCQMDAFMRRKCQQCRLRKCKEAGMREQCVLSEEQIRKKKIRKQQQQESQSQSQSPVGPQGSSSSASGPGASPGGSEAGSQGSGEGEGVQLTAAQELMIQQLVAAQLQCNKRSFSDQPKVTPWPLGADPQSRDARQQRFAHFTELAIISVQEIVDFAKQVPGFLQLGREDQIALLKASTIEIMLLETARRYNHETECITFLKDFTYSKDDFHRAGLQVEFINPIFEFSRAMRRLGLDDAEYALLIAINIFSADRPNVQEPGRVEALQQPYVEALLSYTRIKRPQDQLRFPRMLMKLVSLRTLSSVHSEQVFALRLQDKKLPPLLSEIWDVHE
In short: (§1)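 Test compounds act for 16 h on transiently transfected HEK293 cells carrying AD-LXR and GAL4 BD-cofactor (SRC1 or NCoR) fusions. Firefly luciferase under GAL4 elements is quantified and corrected with Renilla luciferase for transfection efficiency.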

[2] = target: T2, LXRβ ligand-binding domain (Homo sapiens, UniProt P55055, DUP175-175); experiment: TR-FRETβ activity assay (NCoA3 coactivator peptide recruitment); type: biochemical; conditions: TR-FRET, 1 μM 24(S)-25-epoxycholesterol prestimulation; read-out: FRETβ (EC50 range)
T2 construct: amino acids 156-461; NP009052; made in house; host or cells: E. coli
T2 sequence (P55055 with tags, fused parts or gaps DUP175-175 limits assumed): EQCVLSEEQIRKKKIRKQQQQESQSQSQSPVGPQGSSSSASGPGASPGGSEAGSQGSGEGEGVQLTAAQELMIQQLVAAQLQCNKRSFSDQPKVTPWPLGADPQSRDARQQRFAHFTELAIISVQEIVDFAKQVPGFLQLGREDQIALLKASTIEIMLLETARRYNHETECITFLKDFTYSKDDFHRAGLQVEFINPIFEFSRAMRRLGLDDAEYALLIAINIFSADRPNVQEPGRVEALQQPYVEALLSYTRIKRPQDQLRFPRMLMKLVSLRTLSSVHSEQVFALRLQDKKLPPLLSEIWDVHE
In short: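 GST-tagged human LXRβ LBD (aa 156-461, E. coli) at 76 nM with 400 nM biotinylated NCoA3 peptide in Tris/HCl pH 6.8, 240 mM KCl, BSA, 0.002% Triton-X-100, plus 1 μM 24(S)-25-epoxycholesterol as prestimulating agonist. Compounds at 50 μM down to 0.002 μM, 1 h at 4 °C. Coactivator recruitment by TR-FRET (Tb cryptate/XL665, 615/665 nm), triplicates.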

[3] = target: T3, full length (FL) LXRα (Homo sapiens, UniProt Q13133); experiment: LXR Gal4 reporter transient transfection assay (FL-M2H Gal4α); type: cell-based; conditions: HEK293 cells, full length LXRα; read-out: FL-M2H Gal4α (EC50 range)
T3 construct: the full length (FL) proteins of LXRα (amino acids 1-447); NP005684; expressed in transfected cells; host or cells: HEK293
T3 sequence (Q13133 1-447): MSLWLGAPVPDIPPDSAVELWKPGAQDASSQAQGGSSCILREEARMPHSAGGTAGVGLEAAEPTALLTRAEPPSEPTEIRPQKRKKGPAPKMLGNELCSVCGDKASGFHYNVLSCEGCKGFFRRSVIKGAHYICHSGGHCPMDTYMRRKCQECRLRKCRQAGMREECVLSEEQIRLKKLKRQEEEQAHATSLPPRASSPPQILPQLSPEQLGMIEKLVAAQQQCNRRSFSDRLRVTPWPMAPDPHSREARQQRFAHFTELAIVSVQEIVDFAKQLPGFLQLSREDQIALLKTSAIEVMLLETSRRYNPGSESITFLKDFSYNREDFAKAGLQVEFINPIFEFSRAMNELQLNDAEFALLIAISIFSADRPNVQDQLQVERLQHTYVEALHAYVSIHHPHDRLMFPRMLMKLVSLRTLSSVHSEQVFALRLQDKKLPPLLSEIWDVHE
In short: as §1

Structure (SMILES)	EC50 [1]	EC50 [2]	EC50 [3]
O=C(O)c1ccc(-c2cccc(-c3c(-c4cccc5nncn45)c4cc(F)ccc4n3S(=O)(=O)c3ccc(C(F)F)cc3)c2)c(Cl)c1 [11/43]	100 to 1000 nM	100 to 1000 nM	100 to 1000 nM
O=C(O)c1ccc(-c2cccc(-c3c(-c4cccc5c4OCO5)c4cc(F)ccc4n3S(=O)(=O)c3ccc(C(F)F)cc3)c2)c(Cl)c1 [11/44]	< 100 nM	< 100 nM	< 100 nM
O=C(O)c1ccc(-c2cccc(-c3c(-c4cccc5nonc45)c4cc(F)ccc4n3S(=O)(=O)c3ccc(C(F)F)cc3)c2)c(Cl)c1 [11/45]	< 100 nM	< 100 nM	< 100 nM
COc1cc(-c2c(-c3cccc(-c4ccc(C(=O)O)cc4Cl)c3)n(S(=O)(=O)c3ccc(C(F)F)cc3)c3ccc(F)cc23)c2c(C#N)cnn2c1 [11/46]	< 100 nM	< 100 nM	< 100 nM
Cn1cccc(-c2c(-c3cccc(-c4ccc(C(=O)O)cc4Cl)c3)n(S(=O)(=O)c3ccc(C(F)F)cc3)c3ccc(F)cc23)c1=O [11/47]	100 to 1000 nM	100 to 1000 nM	100 to 1000 nM
N#Cc1cccc(C#N)c1-c1c(-c2cccc(-c3ccc(C(=O)O)c(F)c3F)c2)n(S(=O)(=O)c2ccc(C(F)F)cc2)c2ccc(F)cc12 [11/52]	< 100 nM	< 100 nM	< 100 nM
N#Cc1cccc(C#N)c1-c1c(-c2cccc(-c3c(F)c(F)c(C(=O)O)c(F)c3F)c2)n(S(=O)(=O)c2ccc(C(F)F)cc2)c2ccc(F)cc12 [11/54]	< 100 nM	< 100 nM	< 100 nM
N#Cc1cccc(C#N)c1-c1c(-c2cccc(-c3ccc(C(=O)O)cc3Cl)c2)n(S(=O)(=O)c2ccc(Cl)cc2)c2ccc(F)cc12 [11/55]	< 100 nM	< 100 nM	< 100 nM
N#Cc1cccc(C#N)c1-c1c(-c2cccc(-c3ccc(C(=O)O)cc3Cl)c2)n(S(=O)(=O)c2ccc(C(F)F)cc2)c2ccccc12 [11/56]	< 100 nM	< 100 nM	< 100 nM
N#Cc1sccc1-c1c(-c2cccc(-c3ccc(C(=O)O)cc3Cl)c2)n(S(=O)(=O)c2ccc(C(F)F)nc2)c2ccc(F)cc12 [11/57]	< 100 nM	< 100 nM	< 100 nM
N#Cc1cccc(C#N)c1-c1c(-c2cccc(C34CCC(C(=O)O)(CC3)CC4)c2)n(S(=O)(=O)c2ccc(C(F)F)cc2)c2ccc(F)cc12 [11/58]	< 100 nM	< 100 nM	< 100 nM
CC(O)(C(=O)O)c1ccc(-c2cccc(-c3c(-c4c(C#N)cccc4C#N)c4cc(F)ccc4n3S(=O)(=O)c3ccc(C(F)F)cc3)c2)cc1 (stereo not drawn) [11/59]	< 100 nM	< 100 nM	< 100 nM
N#Cc1cccc(C#N)c1-c1c(-c2cccc([C@H]3CC[C@@H](C(=O)O)CC3)c2)n(S(=O)(=O)c2ccc(C(F)F)cc2)c2ccc(F)cc12 [11/61]	< 100 nM	100 to 1000 nM	< 100 nM
N#Cc1cccc(C#N)c1-c1c(-c2cccc(-c3ccc(C(=O)O)cc3F)c2)n(S(=O)(=O)C2CCC(C(F)(F)F)CC2)c2ccc(F)cc12 (stereo not drawn) [11/64]	< 100 nM	100 to 1000 nM	< 100 nM
N#Cc1cccc(C#N)c1-c1c(-c2cccc(-c3ccc(C(=O)O)cc3Cl)c2)n(S(=O)(=O)C2CC3CCC2C3)c2ccc(F)cc12 (stereo not drawn) [11/66]	< 100 nM	100 to 1000 nM	< 100 nM
N#Cc1cncc(C#N)c1-c1c(-c2cccc(-c3ccc(C(=O)O)cc3Cl)c2)n(S(=O)(=O)c2ccc(C(F)F)cc2)c2ccc(F)cc12 [11/67]	< 100 nM	100 to 1000 nM	< 100 nM
Cn1ccc(-c2c(-c3cccc(-c4ccc(C(=O)O)cc4Cl)c3)n(S(=O)(=O)c3ccc(C(F)F)cc3)c3ccc(F)cc23)c1C#N [11/68]	< 100 nM	< 100 nM	< 100 nM

Structure (SMILES)	EC50 [1]	EC50 [2]	EC50 [3]
O=C(O)C1CC1c1cccc(-c2c(-c3c(Cl)cccc3Cl)c3cc(F)ccc3n2S(=O)(=O)c2ccc(C(F)F)cc2)c1 (stereo not drawn) [11/69]	< 100 nM	< 100 nM	< 100 nM
Cc1ccc(S(=O)(=O)n2c(-c3cccc(-c4ccc(C(=O)O)c(C)c4Cl)c3)c(-c3ccsc3C#N)c3cc(F)ccc32)cc1 [12/1]	< 100 nM	100 to 1000 nM	< 100 nM
Cc1ccc(S(=O)(=O)n2c(-c3cccc(-c4cc(F)c(C(=O)O)cc4Cl)c3)c(-c3ccsc3C#N)c3cc(F)ccc32)cc1 [12/2]	< 100 nM	100 to 1000 nM	< 100 nM
Cc1ccc(S(=O)(=O)n2c(-c3cccc(-c4ccc(C(=O)O)c(F)c4Cl)c3)c(-c3ccsc3C#N)c3cc(F)ccc32)cc1 [12/3]	< 100 nM	100 to 1000 nM	< 100 nM
COc1cc(-c2cccc(-c3c(-c4ccsc4C#N)c4cc(F)ccc4n3S(=O)(=O)c3ccc(C)cc3)c2)c(Cl)cc1C(=O)O [12/4]	< 100 nM	100 to 1000 nM	< 100 nM
COc1c(C(=O)O)ccc(-c2cccc(-c3c(-c4ccsc4C#N)c4cc(F)ccc4n3S(=O)(=O)c3ccc(C)cc3)c2)c1Cl [12/5]	< 100 nM	< 100 nM	< 100 nM
Cc1ccc(S(=O)(=O)n2c(-c3cccc(-c4cc(C(=O)O)n[nH]4)c3)c(-c3ccsc3C#N)c3cc(F)ccc32)cc1 [12/6]	1000 to 10000 nM	1000 to 10000 nM	100 to 1000 nM
Cc1ccc(S(=O)(=O)n2c(-c3cccc(-c4cc(C(=O)O)nn4C)c3)c(-c3ccsc3C#N)c3cc(F)ccc32)cc1 [12/7]	100 to 1000 nM	100 to 1000 nM	100 to 1000 nM
Cc1ccc(S(=O)(=O)n2c(-c3cccc(-c4cc(C(=O)O)nn4C(C)C)c3)c(-c3ccsc3C#N)c3cc(F)ccc32)cc1 [12/8]	100 to 1000 nM	1000 to 10000 nM	100 to 1000 nM
Cc1ccc(S(=O)(=O)n2c(-c3cccc(-c4ccc5c(C(=O)O)n[nH]c5c4)c3)c(-c3ccsc3C#N)c3cc(F)ccc32)cc1 [12/9]	100 to 1000 nM	100 to 1000 nM	100 to 1000 nM
N#Cc1cccc(C#N)c1-c1c(-c2cccc(-c3ccc(S(=O)(=O)O)cc3Cl)c2)n(S(=O)(=O)c2ccc(C(F)F)cc2)c2ccc(F)cc12 [12/10]	< 100 nM	< 100 nM	< 100 nM
N#Cc1sccc1-c1c(-c2cccc(-c3ccc(C(=O)O)cc3)c2)n(S(=O)(=O)c2ccc3c(c2)CCC3)c2ccc(F)cc12 [23/3]	< 100 nM	100 to 1000 nM	< 100 nM
CC(C)(O)c1ccc(S(=O)(=O)n2c(-c3cccc(-c4ccc(C(=O)O)cc4Cl)c3)c(-c3ccccc3C#N)c3cc(F)ccc32)cc1 [30/16]	100 to 1000 nM	1000 to 10000 nM	100 to 1000 nM
COC(=O)C(C)(C)N(C)C(=O)C1CN(c2cccc(-c3c(-c4ccsc4C#N)c4cc(F)ccc4n3S(=O)(=O)c3ccc(C)cc3)c2)C1 [32/2]	100 to 1000 nM	100 to 1000 nM	100 to 1000 nM
Cc1ccc(S(=O)(=O)n2c(-c3cccc(-c4ccc(C(=O)NS(C)(=O)=O)cc4Cl)c3)c(-c3ccsc3C#N)c3cc(F)ccc32)cc1 [32/4]	< 100 nM	< 100 nM	< 100 nM
Cc1ccc(S(=O)(=O)n2c(-c3cccc(-c4ccc(C(=O)O)nc4C)c3)c(-c3ccsc3C#N)c3cc(F)ccc32)cc1 [36/1]	< 100 nM	100 to 1000 nM	< 100 nM

From US11618747B2, “LXR modulators with bicyclic core moiety” (OrsoBio, Inc., priority 2018, dated 2023)
